We go through three compounds from paper PMC3196554 (Chemical research in toxicology, 2010).

The test system of data set [1] is P450 1A2. The note with it: human hepatocytes pretreated with furafylline; cited from earlier work.
Data set [2] is described as follows: Acid hydrolysis of conjugates. To be noted: 50% (v/v) glacial acetic acid or 1 N HCl, 80 °C for 8 h. Type of data set: physicochemical.
For data set [3] the following is noted: for Amount in urine collected for 10 h after consumption of cooked beef: Mean ± SD of 3 independent measurements; for % Dose in urine collected for 10 h after consumption of cooked beef: metabolites as % of dose of parent MeIQx or PhIP.
The next data set relates to human liver UGTs. The note with it: human liver microsomes fortified with UDPGA; cited from earlier work. (In general: Liver microsomes are a subcellular fraction often used to study metabolism.)
The subject of data set [4] is P450 1A2. The note with it: subjects given furafylline prior to cooked beef; cited from earlier work.
For data set [5] the following is noted: cited from earlier work.
The conditions of data set [6]: 14C-PhIP; cited from earlier work.

The structures appear in SMILES notation. Read-outs that look alike come from different tables or passages of the source.

For orientation: pKa means the pH at which an ionisable group is half protonated.

For the compound `Cc1nc2c([nH]1)c(=O)n(C)c(=O)n2Cc1ccco1` [furafylline], the “Inhibition of formation of 8-CH2OH-IQx, IQx-8-COOH and glucuronide conjugates of HONH-MeIQx and HONH-PhIP” value in the data set with P450 1A2 [1] is recorded as “inhibited to a similar degree”.

`Cn1c(=N)n([C@@H]2O[C@H](C(=O)O)[C@@H](O)[C@H](O)[C@H]2O)c2ncc(-c3ccccc3)cc21` [PhIP-N3-Gl, N3-(ß-1-glucosidurony1)-2-amino-1-methy1-6-phenylimidazo[4,5-b]pyridine]: in data set [2], the “Behaviour under acid hydrolysis conditions” value was “stable” and the “Proportion of the conjugate that underwent hydrolysis” value was less than 5%. In data set [3] (urine after meat consumption, LOQ ~50 pg/mL), the “Amount present in urine samples” value is reported as “below the LOQ”. The “Amount formed relative to PhIP-N^2-Gl” value in the data set on human liver UGTs is recorded as 10 fold.

Take `Cn1c(N)nc2ncc(-c3ccccc3)cc21` [PhIP, 2-amino-1-methyl-6-phenylimidazo[4,5-b]pyridine]: the “Share of elimination accounted for by P450 1A2” value in the data set on P450 1A2 [4] is listed as 70%. The pKa in data set [5] is recorded as 5.65. The “Proportion of the dose eliminated in urine within 24 h as isomeric HON-PhIP-N-glucuronide conjugates” value in data set [6] is on record as “approximately 50%”. The “Amount in urine collected for 10 h after consumption of cooked beef” value in data set [3] (Subject S-001) is listed as 37.1 ± 3.3 ng; in data set [3] (Subject S-003), 6.5 ± 1.1 ng; in data set [3] (Subject S-005), 11.4 ± 0.9 ng; in data set [3] (Subject S-008) it was 9.5 ± 0.6 ng; in data set [3] (Subject S-009), 18.5 ± 1.6 ng; in data set [3] (Subject S-012), 17.0 ± 0.7 ng. Further, the “Amount in urine collected for 10 h after consumption of cooked beef” value in data set [3] (Subject S-013) was 14.1 ± 1.2 ng; in data set [3] (Subject S-014) it was 8.9 ± 0.6 ng; in data set [3] (Subject S-015), 8.2 ± 1.0 ng; in data set [3] (Subject S-020), 18.9 ± 1.6 ng. Also, the “% Dose in urine collected for 10 h after consumption of cooked beef” value worked out at 0.8 % Dose in data set [3] (Subject S-001); 0.1 % Dose in data set [3] (Subject S-003); 0.2 % Dose in data set [3] (Subject S-005); 0.2 % Dose in data set [3] (Subject S-008); 0.4 % Dose in data set [3] (Subject S-009); 0.3 % Dose in data set [3] (Subject S-012). In addition, the “% Dose in urine collected for 10 h after consumption of cooked beef” value in data set [3] (Subject S-013) stood at 0.3 % Dose; in data set [3] (Subject S-014), 0.2 % Dose; in data set [3] (Subject S-015), 0.2 % Dose; in data set [3] (Subject S-020), 0.4 % Dose.
